Test results taken from ChEMBL document CHEMBL1201862, “PubChem BioAssay data set” (2004).
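1) Cells in 96-well plates. 2) Compound, 48 h, 5 concentrations. 3) Linear interpolation between surrounding doses. 4) Unreached endpoint = highest concentration. GI50 = concentration required for 50% inhibition of growth.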 The source made the active and inactive calls. No stated cut-off is given here; in the data, active = GI50 up to about 1.1 µM and inactive = higher.

Columns and labels:
Test in all cases: NCI tumour cell line growth inhibition, 48 h
[1] = system: A498
[2] = system: SN12C
[3] = system: MOLT-4
[4] = system: SK-OV-3
[5] = system: LOX IMVI
[6] = system: OVCAR-4
[7] = system: MCF7
[8] = system: RPMI-8226
[9] = system: A549
[10] = system: OVCAR-8
[11] = system: HCT-116
[12] = system: U-251
[13] = system: K562
[14] = system: KM12
[15] = system: CCRF-CEM
[16] = system: HCT-15
[17] = system: UO-31
[18] = system: NCI-H23
[19] = system: HCC 2998
[20] = system: IGROV-1
[21] = system: UACC-62
[22] = system: SNB-75
[23] = system: UACC-257
[24] = system: COLO 205
[25] = system: 786-0
[26] = system: M14
[27] = system: SNB-19
[28] = system: SR
[29] = system: Malme-3M
[30] = system: NCI/ADR-RES
[31] = system: NCI-H226
[32] = system: Hs-578T
[33] = system: SF-539
[34] = system: NCI-H460
[35] = system: HOP-92
[36] = system: SW-620
[37] = system: CAKI-1
[38] = system: NCI-H522
[39] = system: OVCAR-5
[40] = system: HOP-62
[41] = system: SK-MEL-2
[42] = system: HT-29
[43] = system: RXF 393
[44] = system: SK-MEL-28
[45] = system: DU-145
[46] = system: MDA-N
[47] = system: MDA-MB-435
[48] = system: T47D
[49] = system: SF-268
[50] = system: OVCAR-3
[51] = system: SK-MEL-5
[52] = system: HL-60
[53] = system: PC-3
[54] = system: TK-10
[55] = system: EKVX
[56] = system: SF-295
[57] = system: ACHN

Question: For `CO[C@@H]1/C=C\C=C(/C)C(=O)NC2=CC(=O)C(NCCN(C)C)=C(C[C@@H](C)C[C@@H](OC)[C@@H](O)[C@H](C)/C=C(\C)[C@H]1OC(N)=O)C2=O`, which GI50 [1] is on record?
Answer: Its GI50 is 13.2 µM (inactive).

Question: And the GI50 [2]?
Answer: Its GI50 is 0.0113 µM (active).

Question: And the GI50 [3]?
Answer: The GI50 was 0.0303 µM (active).

Question: What about the GI50 [4] of the same compound?
Answer: The GI50 was 0.0137 µM (active).

Question: What about the GI50 [5] of the same compound?
Answer: Its GI50 is 0.0108 µM (active).

Question: What about the GI50 [6] of the same compound?
Answer: The GI50 was 1.14 µM (inactive).

Question: What about the GI50 [7] of the same compound?
Answer: Its GI50 is < 0.01 µM (active).

Question: And the GI50 [8]?
Answer: The GI50 was 0.0713 µM (active).

Question: And the GI50 [9]?
Answer: The GI50 was < 0.01 µM (active).

Question: What about the GI50 [10] of the same compound?
Answer: The GI50 was 0.0172 µM (active).

Question: And the GI50 [11]?
Answer: Its GI50 is 0.0171 µM (active).

Question: And the GI50 [12]?
Answer: The GI50 was 0.011 µM (active).

Question: And the GI50 [13]?
Answer: The GI50 was 0.0139 µM (active).

Question: What about the GI50 [14] of the same compound?
Answer: Its GI50 is 0.0122 µM (active).

Question: And the GI50 [15]?
Answer: Its GI50 is 0.0247 µM (active).

Question: What about the GI50 [16] of the same compound?
Answer: Its GI50 is 0.619 µM.

Question: What about the GI50 [17] of the same compound?
Answer: Its GI50 is 0.838 µM (active).

Question: What about the GI50 [18] of the same compound?
Answer: The GI50 was < 0.01 µM (active).

Question: And the GI50 [19]?
Answer: Its GI50 is 0.015 µM (active).

Question: What about the GI50 [20] of the same compound?
Answer: The GI50 was 0.0139 µM (active).

Question: And the GI50 [21]?
Answer: Its GI50 is 0.0172 µM (active).

Question: And the GI50 [22]?
Answer: Its GI50 is < 0.01 µM (active).

Question: And the GI50 [23]?
Answer: Its GI50 is 0.0159 µM (active).

Question: And the GI50 [24]?
Answer: The GI50 was 0.0145 µM (active).

Question: And the GI50 [25]?
Answer: The GI50 was 0.0286 µM (active).

Question: What about the GI50 [26] of the same compound?
Answer: The GI50 was 0.0104 µM (active).

Question: And the GI50 [27]?
Answer: The GI50 was 0.0292 µM (active).

Question: What about the GI50 [28] of the same compound?
Answer: The GI50 was < 0.01 µM (active).

Question: What about the GI50 [29] of the same compound?
Answer: The GI50 was 0.013 µM (active).

Question: With `CCOP(=O)(C=C=C(C)C)OCC` as the compound, how does the GI50 [30] read?
Answer: Its GI50 is > 100 µM (inactive).

Question: And the GI50 [31]?
Answer: Its GI50 is > 100 µM (inactive).

Question: And the GI50 [1]?
Answer: The GI50 was > 100 µM (inactive).

Question: What about the GI50 [2] of the same compound?
Answer: Its GI50 is > 100 µM (inactive).

Question: And the GI50 [32]?
Answer: The GI50 was > 100 µM (inactive).

Question: What about the GI50 [33] of the same compound?
Answer: The GI50 was > 100 µM (inactive).

Question: What about the GI50 [34] of the same compound?
Answer: Its GI50 is > 100 µM (inactive).

Question: What about the GI50 [35] of the same compound?
Answer: Its GI50 is > 100 µM (inactive).

Question: And the GI50 [4]?
Answer: The GI50 was > 100 µM (inactive).

Question: What about the GI50 [5] of the same compound?
Answer: The GI50 was > 100 µM (inactive).

Question: What about the GI50 [36] of the same compound?
Answer: The GI50 was > 100 µM (inactive).

Question: What about the GI50 [6] of the same compound?
Answer: The GI50 was > 100 µM (inactive).

Question: What about the GI50 [7] of the same compound?
Answer: Its GI50 is > 100 µM (inactive).

Question: And the GI50 [9]?
Answer: Its GI50 is > 100 µM (inactive).

Question: And the GI50 [10]?
Answer: The GI50 was > 100 µM (inactive).

Question: What about the GI50 [11] of the same compound?
Answer: Its GI50 is > 100 µM (inactive).

Question: What about the GI50 [37] of the same compound?
Answer: Its GI50 is > 100 µM (inactive).

Question: What about the GI50 [12] of the same compound?
Answer: Its GI50 is > 100 µM (inactive).

Question: What about the GI50 [38] of the same compound?
Answer: Its GI50 is 36.4 µM (inactive).

Question: And the GI50 [13]?
Answer: Its GI50 is > 100 µM (inactive).

Question: And the GI50 [14]?
Answer: Its GI50 is > 100 µM (inactive).

Question: And the GI50 [39]?
Answer: Its GI50 is > 100 µM (inactive).

Question: What about the GI50 [40] of the same compound?
Answer: The GI50 was > 100 µM (inactive).

Question: What about the GI50 [41] of the same compound?
Answer: Its GI50 is > 100 µM (inactive).

Question: And the GI50 [42]?
Answer: The GI50 was > 100 µM (inactive).

Question: And the GI50 [43]?
Answer: The GI50 was > 100 µM (inactive).

Question: What about the GI50 [44] of the same compound?
Answer: Its GI50 is > 100 µM (inactive).

Question: And the GI50 [45]?
Answer: Its GI50 is > 100 µM (inactive).

Question: What about the GI50 [46] of the same compound?
Answer: The GI50 was > 100 µM (inactive).

Question: And the GI50 [16]?
Answer: Its GI50 is greater than 100 µM.

Question: What about the GI50 [47] of the same compound?
Answer: The GI50 was > 100 µM (inactive).

Question: And the GI50 [48]?
Answer: The GI50 was > 100 µM (inactive).

Question: And the GI50 [49]?
Answer: Its GI50 is > 100 µM (inactive).

Question: And the GI50 [50]?
Answer: The GI50 was > 100 µM (inactive).

Question: What about the GI50 [18] of the same compound?
Answer: The GI50 was > 100 µM (inactive).

Question: What about the GI50 [19] of the same compound?
Answer: Its GI50 is > 100 µM (inactive).

Question: And the GI50 [20]?
Answer: Its GI50 is > 100 µM (inactive).

Question: What about the GI50 [51] of the same compound?
Answer: Its GI50 is > 100 µM (inactive).

Question: And the GI50 [52]?
Answer: Its GI50 is 94.6 µM (inactive).

Question: And the GI50 [21]?
Answer: The GI50 was > 100 µM (inactive).

Question: What about the GI50 [22] of the same compound?
Answer: Its GI50 is > 100 µM (inactive).

Question: And the GI50 [23]?
Answer: Its GI50 is > 100 µM (inactive).

Question: What about the GI50 [24] of the same compound?
Answer: Its GI50 is > 100 µM (inactive).

Question: And the GI50 [25]?
Answer: Its GI50 is > 100 µM (inactive).

Question: And the GI50 [26]?
Answer: Its GI50 is > 100 µM (inactive).

Question: And the GI50 [27]?
Answer: Its GI50 is > 100 µM (inactive).

Question: What about the GI50 [28] of the same compound?
Answer: Its GI50 is > 100 µM (inactive).

Question: What about the GI50 [53] of the same compound?
Answer: Its GI50 is > 100 µM (inactive).

Question: What about the GI50 [54] of the same compound?
Answer: The GI50 was > 100 µM (inactive).

Question: What about the GI50 [55] of the same compound?
Answer: The GI50 was > 100 µM (inactive).

Question: And the GI50 [29]?
Answer: The GI50 was > 100 µM (inactive).

Question: And the GI50 [56]?
Answer: The GI50 was > 100 µM (inactive).

Question: What about the GI50 [57] of the same compound?
Answer: The GI50 was > 100 µM (inactive).
